Source: ChEMBL document CHEMBL5696441 (Nat Chem Biol, 2011)

Legend:
[1] = biological target: Ephrin type-A receptor 7 (Homo sapiens) (UniProt Q15375); test: Inhibition of EPHA7 (unknown origin) assessed as remaining activity at 1 uM by Kinome scan method relative to control
[2] = biological target: Homeodomain-interacting protein kinase 2 (Homo sapiens) (UniProt Q9H2X6); test: Inhibition of HIPK2 (unknown origin) assessed as remaining activity at 1 uM by Kinome scan method relative to control
[3] = biological target: Serine/threonine-protein kinase OSR1 (Homo sapiens) (UniProt O95747); test: Inhibition of OSR1 (unknown origin) assessed as remaining activity at 1 uM by Kinome scan method relative to control
[4] = biological target: Serine/threonine-protein kinase PAK 3 (Homo sapiens) (UniProt O75914); test: Inhibition of PAK3 (unknown origin) assessed as remaining activity at 1 uM by Kinome scan method relative to control
[5] = test system: Proto-oncogene tyrosine-protein kinase receptor Ret (Homo sapiens), P07949 [V804M]; test: Inhibition of RET V804M (unknown origin) assessed as remaining activity at 1 uM by Kinome scan method relative to control
[6] = biological target: Serine/threonine-protein kinase SIK1 (Homo sapiens) (UniProt P57059); test: Inhibition of SIK (unknown origin) assessed as remaining activity at 1 uM by Kinome scan method relative to control
[7] = biological target: Tyrosine-protein kinase receptor TYRO3 (Homo sapiens) (UniProt Q06418); test: Inhibition of TYRO3 (unknown origin) assessed as remaining activity at 1 uM by Kinome scan method relative to control
[8] = biological target: RAC-alpha serine/threonine-protein kinase (Homo sapiens) (UniProt P31749); test: Inhibition of human AKT1 assessed as residual activity at 1 uM using RBER-GSK3(14-27) as substrate in presence of 33P-ATP by ProQinase assay relative to control
[9] = biological target: ALK tyrosine kinase receptor (Homo sapiens) (UniProt Q9UM73); test: Inhibition of human ALK assessed as residual activity at 1 uM using PolyEY as substrate in presence of 33P-ATP by ProQinase assay relative to control
[10] = test system: Serine/threonine-protein kinase B-raf (Homo sapiens), P15056 [V600E]; test: Inhibition of human BRAF V600E mutant assessed as residual activity at 1 uM using MEK1-K97M as substrate in presence of 33P-ATP by ProQinase assay relative to control
[11] = biological target: CDK2/Cyclin A2 (Homo sapiens) (UniProt P24941+P20248); test: Inhibition of human CDK2/CycA2 assessed as residual activity at 1 uM using RBER-CHKtide as substrate in presence of 33P-ATP by ProQinase assay relative to control; assay type: protein-complex assay
[12] = biological target: Cyclin-dependent kinase 5/CDK5 activator 1 (Homo sapiens) (UniProt Q00535+Q15078); test: Inhibition of human CDK5/p25NCK assessed as residual activity at 1 uM using RBER-CHKtide as substrate in presence of 33P-ATP by ProQinase assay relative to control; assay type: protein-complex assay
[13] = biological target: Casein kinase I isoform delta (Homo sapiens) (UniProt P48730); test: Inhibition of human CK1delta assessed as residual activity at 1 uM using casein as substrate in presence of 33P-ATP by ProQinase assay relative to control
[14] = biological target: Mitogen-activated protein kinase kinase kinase 8 (Homo sapiens) (UniProt P41279); test: Inhibition of human COT assessed as residual activity at 1 uM using RBER-CHKtide as substrate in presence of 33P-ATP by ProQinase assay relative to control
[15] = biological target: Tyrosine-protein kinase CSK (Homo sapiens) (UniProt P41240); test: Inhibition of human CSK assessed as residual activity at 1 uM using polyEY as substrate in presence of 33P-ATP by ProQinase assay relative to control
[16] = biological target: Glycogen synthase kinase-3 beta (Homo sapiens) (UniProt P49841); test: Inhibition of human GSK3beta assessed as residual activity at 1 uM using RBER-CHKtide as substrate in presence of 33P-ATP by ProQinase assay relative to control
[17] = biological target: LIM domain kinase 2 (Homo sapiens) (UniProt P53671); test: Inhibition of human LIMK2 assessed as residual activity at 1 uM using CFL1 as substrate in presence of 33P-ATP by ProQinase assay relative to control
[18] = biological target: Mitogen-activated protein kinase kinase kinase 14 (Homo sapiens) (UniProt Q99558); test: Inhibition of human NIK assessed as residual activity at 1 uM using RBER-CHKtide as substrate in presence of 33P-ATP by ProQinase assay relative to control
[19] = biological target: Serine/threonine-protein kinase PAK 6 (Homo sapiens) (UniProt Q9NQU5); test: Inhibition of human PAK6 assessed as residual activity at 1 uM using bio-4xCHKT as substrate in presence of 33P-ATP by ProQinase assay relative to control
[20] = test system: Platelet-derived growth factor receptor alpha (Homo sapiens), P16234 [T674I]; test: Inhibition of human PDGFRalpha T674I mutant assessed as residual activity at 1 uM using Poly(Ala,Glu,Lys,Tyr)6:2:5:1 as substrate in presence of 33P-ATP by ProQinase assay relative to control
[21] = biological target: Protein kinase C zeta type (Homo sapiens) (UniProt Q05513); test: Inhibition of human PKCzeta assessed as residual activity at 1 uM using 3xChocktide-PKC(19-31) as substrate in presence of 33P-ATP by ProQinase assay relative to control
[22] = biological target: Proto-oncogene tyrosine-protein kinase receptor Ret (Homo sapiens) (UniProt P07949); test: Inhibition of human RET assessed as residual activity at 1 uM using polyEY as substrate in presence of 33P-ATP by ProQinase assay relative to control
[23] = biological target: Serine/threonine-protein kinase Sgk1 (Homo sapiens) (UniProt O00141); test: Inhibition of human SGK1 assessed as residual activity at 1 uM using RBER-GSK3(14-27) as substrate in presence of 33P-ATP by ProQinase assay relative to control
[24] = biological target: Angiopoietin-1 receptor (Homo sapiens) (UniProt Q02763); test: Inhibition of human TIE2 assessed as residual activity at 1 uM using polyEY as substrate in presence of 33P-ATP by ProQinase assay relative to control
[25] = biological target: Serine/threonine-protein kinase WNK3 (Homo sapiens) (UniProt Q9BYP7); test: Inhibition of human WNK3 assessed as residual activity at 1 uM using RB-S6P as substrate in presence of 33P-ATP by ProQinase assay relative to control
[26] = biological target: CYP3A4 (Homo sapiens, UniProt P08684); test: Inhibition of CYP3A4 (unknown origin) at 10 uM relative to control; assay type: ADME
[27] = biological target: 3-phosphoinositide-dependent protein kinase 1 (Homo sapiens) (UniProt O15530); test: Inhibition of human PDK1 assessed as residual activity at 1 uM using bio-4xCHKT as substrate in presence of 33P-ATP by ProQinase assay relative to control

Chain of Serine/threonine-protein kinase WNK3 (Homo sapiens) (Q9BYP7 whole entry): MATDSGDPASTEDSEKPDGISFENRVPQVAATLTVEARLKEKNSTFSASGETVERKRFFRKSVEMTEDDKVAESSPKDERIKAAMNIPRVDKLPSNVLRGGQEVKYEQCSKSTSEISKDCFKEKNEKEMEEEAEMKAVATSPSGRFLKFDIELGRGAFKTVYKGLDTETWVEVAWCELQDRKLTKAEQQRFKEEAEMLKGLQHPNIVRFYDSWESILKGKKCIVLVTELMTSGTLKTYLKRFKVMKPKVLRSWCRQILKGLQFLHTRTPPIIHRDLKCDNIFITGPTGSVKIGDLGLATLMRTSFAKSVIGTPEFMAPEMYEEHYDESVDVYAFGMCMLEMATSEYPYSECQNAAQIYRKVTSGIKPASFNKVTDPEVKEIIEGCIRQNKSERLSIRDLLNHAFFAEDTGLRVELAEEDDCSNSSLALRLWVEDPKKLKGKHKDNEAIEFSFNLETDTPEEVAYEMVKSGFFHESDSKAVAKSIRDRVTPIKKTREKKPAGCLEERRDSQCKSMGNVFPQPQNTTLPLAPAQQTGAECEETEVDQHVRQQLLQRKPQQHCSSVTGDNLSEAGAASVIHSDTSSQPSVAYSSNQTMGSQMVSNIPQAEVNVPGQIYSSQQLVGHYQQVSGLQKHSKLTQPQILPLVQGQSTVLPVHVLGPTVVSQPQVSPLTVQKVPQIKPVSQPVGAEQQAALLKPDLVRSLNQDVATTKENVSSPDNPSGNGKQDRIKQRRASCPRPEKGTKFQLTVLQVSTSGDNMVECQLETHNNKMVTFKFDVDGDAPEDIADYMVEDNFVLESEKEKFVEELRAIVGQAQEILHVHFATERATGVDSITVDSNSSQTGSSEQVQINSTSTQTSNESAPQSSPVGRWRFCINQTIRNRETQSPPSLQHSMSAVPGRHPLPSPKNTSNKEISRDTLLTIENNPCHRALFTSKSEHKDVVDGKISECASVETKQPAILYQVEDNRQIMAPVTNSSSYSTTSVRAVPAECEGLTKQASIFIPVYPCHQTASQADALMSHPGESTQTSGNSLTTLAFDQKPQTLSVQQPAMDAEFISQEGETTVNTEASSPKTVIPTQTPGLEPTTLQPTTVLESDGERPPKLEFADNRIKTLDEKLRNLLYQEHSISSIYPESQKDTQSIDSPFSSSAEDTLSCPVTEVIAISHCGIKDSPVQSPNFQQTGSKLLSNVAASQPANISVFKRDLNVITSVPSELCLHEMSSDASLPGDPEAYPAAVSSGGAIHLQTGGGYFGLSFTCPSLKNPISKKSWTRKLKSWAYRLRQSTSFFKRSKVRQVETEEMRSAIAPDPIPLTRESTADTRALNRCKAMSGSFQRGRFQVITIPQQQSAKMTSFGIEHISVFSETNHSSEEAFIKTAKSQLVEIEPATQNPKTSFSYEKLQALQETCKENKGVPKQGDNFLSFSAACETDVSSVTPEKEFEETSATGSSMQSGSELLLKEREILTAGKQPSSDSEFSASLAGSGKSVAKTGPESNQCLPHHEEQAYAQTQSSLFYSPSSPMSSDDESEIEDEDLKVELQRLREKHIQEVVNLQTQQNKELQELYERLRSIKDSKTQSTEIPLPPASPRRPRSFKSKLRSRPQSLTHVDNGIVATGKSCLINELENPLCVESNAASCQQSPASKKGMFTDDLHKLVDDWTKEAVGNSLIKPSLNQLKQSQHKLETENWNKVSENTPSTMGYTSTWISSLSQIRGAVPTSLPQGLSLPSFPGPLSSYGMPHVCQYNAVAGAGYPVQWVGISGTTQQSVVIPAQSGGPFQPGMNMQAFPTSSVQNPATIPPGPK
Chain of Proto-oncogene tyrosine-protein kinase receptor Ret (Homo sapiens), P07949 [V804M] (P07949 whole entry V804M): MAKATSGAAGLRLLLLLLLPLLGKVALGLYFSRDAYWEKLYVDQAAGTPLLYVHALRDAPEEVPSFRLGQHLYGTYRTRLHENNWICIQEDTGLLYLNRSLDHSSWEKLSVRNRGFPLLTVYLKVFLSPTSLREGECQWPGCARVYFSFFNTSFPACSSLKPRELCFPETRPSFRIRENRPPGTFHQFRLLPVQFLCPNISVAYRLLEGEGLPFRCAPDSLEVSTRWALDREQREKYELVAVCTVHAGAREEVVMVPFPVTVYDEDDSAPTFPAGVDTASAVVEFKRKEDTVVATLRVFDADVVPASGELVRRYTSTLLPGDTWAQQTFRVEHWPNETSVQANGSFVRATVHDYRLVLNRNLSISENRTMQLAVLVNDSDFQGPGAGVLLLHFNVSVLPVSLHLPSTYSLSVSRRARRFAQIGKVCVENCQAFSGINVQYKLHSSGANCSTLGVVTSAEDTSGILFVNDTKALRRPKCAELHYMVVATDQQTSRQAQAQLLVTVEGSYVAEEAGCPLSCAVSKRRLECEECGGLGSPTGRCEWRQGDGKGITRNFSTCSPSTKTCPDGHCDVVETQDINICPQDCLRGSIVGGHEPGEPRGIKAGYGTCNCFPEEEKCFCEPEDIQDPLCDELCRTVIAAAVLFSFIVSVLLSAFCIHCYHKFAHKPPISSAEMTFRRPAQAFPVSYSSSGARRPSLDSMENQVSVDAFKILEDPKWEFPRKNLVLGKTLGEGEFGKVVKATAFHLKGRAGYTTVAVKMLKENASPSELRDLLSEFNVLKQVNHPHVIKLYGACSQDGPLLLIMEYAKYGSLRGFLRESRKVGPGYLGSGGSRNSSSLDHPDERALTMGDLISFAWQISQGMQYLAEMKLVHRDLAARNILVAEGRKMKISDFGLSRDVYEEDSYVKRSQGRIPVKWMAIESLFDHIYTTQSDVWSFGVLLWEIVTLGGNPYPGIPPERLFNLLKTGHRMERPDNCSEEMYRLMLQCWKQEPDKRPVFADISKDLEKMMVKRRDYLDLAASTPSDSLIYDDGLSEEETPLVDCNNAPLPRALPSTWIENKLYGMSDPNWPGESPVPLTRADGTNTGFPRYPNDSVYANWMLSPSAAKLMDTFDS
Chain of Cyclin-dependent kinase 5/CDK5 activator 1 (Homo sapiens) (Q00535 whole entry, canonical isoform): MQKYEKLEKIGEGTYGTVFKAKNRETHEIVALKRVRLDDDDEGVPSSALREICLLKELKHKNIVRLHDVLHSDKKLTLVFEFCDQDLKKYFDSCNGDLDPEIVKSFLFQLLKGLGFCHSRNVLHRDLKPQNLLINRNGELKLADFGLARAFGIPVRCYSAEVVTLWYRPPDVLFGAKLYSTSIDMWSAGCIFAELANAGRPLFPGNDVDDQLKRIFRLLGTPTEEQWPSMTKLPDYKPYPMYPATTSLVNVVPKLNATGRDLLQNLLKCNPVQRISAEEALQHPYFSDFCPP
Chain of Cyclin-dependent kinase 5/CDK5 activator 1 (Homo sapiens) (Q15078 99-307 partner limits assumed): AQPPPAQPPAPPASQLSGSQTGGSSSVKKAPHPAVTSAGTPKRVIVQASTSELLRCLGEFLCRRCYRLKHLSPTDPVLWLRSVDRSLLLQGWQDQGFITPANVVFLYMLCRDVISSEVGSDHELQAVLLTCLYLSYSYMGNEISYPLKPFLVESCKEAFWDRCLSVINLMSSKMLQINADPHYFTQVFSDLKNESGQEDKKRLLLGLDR
Chain of Serine/threonine-protein kinase PAK 3 (Homo sapiens) (O75914 whole entry, looked up): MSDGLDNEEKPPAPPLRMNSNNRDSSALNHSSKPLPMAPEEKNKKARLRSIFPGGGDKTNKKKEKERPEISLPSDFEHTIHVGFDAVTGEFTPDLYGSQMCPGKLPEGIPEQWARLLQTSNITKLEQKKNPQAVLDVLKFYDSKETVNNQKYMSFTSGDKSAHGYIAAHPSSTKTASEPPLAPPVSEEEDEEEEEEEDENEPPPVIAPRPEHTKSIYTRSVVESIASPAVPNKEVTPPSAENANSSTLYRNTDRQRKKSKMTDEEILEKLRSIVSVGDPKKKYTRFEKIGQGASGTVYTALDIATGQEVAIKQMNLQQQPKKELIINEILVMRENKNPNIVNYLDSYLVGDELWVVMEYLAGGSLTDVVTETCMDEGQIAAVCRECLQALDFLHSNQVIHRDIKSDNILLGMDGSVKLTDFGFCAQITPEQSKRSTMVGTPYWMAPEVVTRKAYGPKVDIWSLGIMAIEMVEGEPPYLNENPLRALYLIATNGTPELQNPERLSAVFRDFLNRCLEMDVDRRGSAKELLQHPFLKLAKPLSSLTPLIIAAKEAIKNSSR
Chain of Proto-oncogene tyrosine-protein kinase receptor Ret (Homo sapiens) (P07949 whole entry): as the sequence (P07949 whole entry V804M) above, with M804V counted along it
Chain of CYP3A4 (P08684 whole entry): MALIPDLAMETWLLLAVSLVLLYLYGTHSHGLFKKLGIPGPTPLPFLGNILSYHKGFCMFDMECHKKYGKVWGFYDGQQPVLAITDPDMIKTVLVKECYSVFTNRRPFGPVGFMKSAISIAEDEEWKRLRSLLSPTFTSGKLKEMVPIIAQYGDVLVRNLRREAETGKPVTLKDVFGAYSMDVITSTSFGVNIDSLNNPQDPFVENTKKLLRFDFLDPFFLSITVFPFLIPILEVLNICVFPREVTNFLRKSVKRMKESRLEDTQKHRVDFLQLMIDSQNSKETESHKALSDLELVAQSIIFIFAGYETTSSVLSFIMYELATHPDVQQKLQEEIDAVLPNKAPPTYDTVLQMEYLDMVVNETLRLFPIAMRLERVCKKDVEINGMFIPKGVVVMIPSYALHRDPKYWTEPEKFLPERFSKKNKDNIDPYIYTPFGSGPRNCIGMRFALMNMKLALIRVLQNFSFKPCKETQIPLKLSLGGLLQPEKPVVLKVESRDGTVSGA
Chain of Tyrosine-protein kinase CSK (Homo sapiens) (P41240 2-450 limits assumed): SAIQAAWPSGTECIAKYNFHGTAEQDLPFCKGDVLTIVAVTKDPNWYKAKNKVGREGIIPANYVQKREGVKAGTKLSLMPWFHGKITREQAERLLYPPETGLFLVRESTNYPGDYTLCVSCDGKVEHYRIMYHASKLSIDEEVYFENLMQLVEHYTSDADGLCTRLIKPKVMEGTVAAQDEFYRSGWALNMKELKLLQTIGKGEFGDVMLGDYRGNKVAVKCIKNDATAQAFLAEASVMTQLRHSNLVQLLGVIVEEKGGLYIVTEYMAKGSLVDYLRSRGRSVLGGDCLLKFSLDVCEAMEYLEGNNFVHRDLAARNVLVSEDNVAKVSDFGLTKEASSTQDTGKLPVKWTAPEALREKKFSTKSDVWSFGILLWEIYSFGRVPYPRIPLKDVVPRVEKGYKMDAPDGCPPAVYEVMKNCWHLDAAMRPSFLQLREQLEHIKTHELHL

## O=C1c2ccc(Nc3ccc(F)cc3F)cc2CCc2ccc(OC[C@H](O)CO)cc21 [Skepinone-L]
[1]
  Activity: 89%
[2]
  Activity: 100%
[3]
  Activity: 100%
[4]
  Activity: 100%
[5]
  Activity: 95%
[6]
  Activity: 100%
[7]
  Activity: 100%
[8]
  Activity: 102%
[9]
  Activity: 104%
[10]
  Activity: 135%
[11]
  Activity: 101%
[12]
  Activity: 99%
[13]
  Activity: 98%
[14]
  Activity: 91%
[15]
  Activity: 111%
[16]
  Activity: 97%
[17]
  Activity: 100%
[18]
  Activity: 96%
[19]
  Activity: 101%
[20]
  Activity: 97%
[21]
  Activity: 109%
[22]
  Activity: 102%
[23]
  Activity: 90%
[24]
  Activity: 98%
[25]
  Activity: 100%
[26]
  inhibition at 10 µM: 34%
[27]
  Activity: 97%
